From patent US9067871B2, “Aminotetraline derivatives, pharmaceutical compositions containing them, and their use in therapy” (ABBVIE DEUTSCHLAND GMBH & CO KG, priority 2009, dated 2015) come the findings set out here.

Where a name gives a salt, the structure may show the parent alone. Bounds are passed on as bounds.

The target of the first experiment is human GlyT1c transporter (Homo sapiens (Human), UniProt P48067). The experiment in a line: Radioligand binding assay using recombinant CHO cell membranes expressing human GlyT1. The settings on record: human GlyT1c-expressing CHO cell membranes; hydrochloride; read-out: radioligand binding Kiapp. The text has this: 2. Radioligand binding assays using recombinant CHO cell membranes expressing human GlyT1: […]
human GlyT1c transporter, sequence (P48067 whole entry): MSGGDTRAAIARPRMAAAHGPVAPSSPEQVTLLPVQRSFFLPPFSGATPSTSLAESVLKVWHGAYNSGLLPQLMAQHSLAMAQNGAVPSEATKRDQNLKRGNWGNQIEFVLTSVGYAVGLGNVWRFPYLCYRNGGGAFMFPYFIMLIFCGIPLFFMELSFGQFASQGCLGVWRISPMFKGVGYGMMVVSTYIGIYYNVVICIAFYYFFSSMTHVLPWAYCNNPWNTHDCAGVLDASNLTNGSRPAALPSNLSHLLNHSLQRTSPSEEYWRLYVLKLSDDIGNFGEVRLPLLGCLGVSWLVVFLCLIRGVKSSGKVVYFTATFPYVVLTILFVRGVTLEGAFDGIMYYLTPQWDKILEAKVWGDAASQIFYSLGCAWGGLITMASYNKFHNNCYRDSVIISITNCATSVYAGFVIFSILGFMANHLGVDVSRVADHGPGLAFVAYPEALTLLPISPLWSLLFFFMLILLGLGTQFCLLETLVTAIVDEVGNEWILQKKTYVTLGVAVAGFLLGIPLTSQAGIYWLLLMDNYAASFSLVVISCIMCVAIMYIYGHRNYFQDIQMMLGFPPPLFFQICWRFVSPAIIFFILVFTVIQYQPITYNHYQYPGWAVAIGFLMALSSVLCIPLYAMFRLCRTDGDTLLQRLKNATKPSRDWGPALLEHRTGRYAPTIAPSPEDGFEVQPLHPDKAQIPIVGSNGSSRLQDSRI
Turning to `Cn1cnc(S(=O)(=O)NCCOc2ccc3c(c2)C(Cc2ccccc2)C(N2CCCC2)CC3)c1` (single isomer, unassigned; (+)) [Example 118, (+)-N-(2-(8-benzyl-7-(pyrrolidin-1-yl)-5,6,7,8-tetrahydronaphthalen-2-yloxy)ethyl)-1-methyl-1H-imidazole-4-sulfonamide hydrochloride], the Ki is no more than 100 nM.

Staying with this experiment, now noted: human GlyT1c-expressing CHO cell membranes; read-out: radioligand binding Kiapp.
On to `NC1CCc2ccc(OCCNS(=O)(=O)CC3CC3)cc2C1Cc1cc(F)cc(Cl)c1` (centres unmarked) [Example 150, N-(2-{[7-Amino-8-(3-chloro-5-fluorobenzyl)-5,6,7,8-tetrahydronaphthalen-2-yl]oxy}ethyl)-1-cyclopropylmethanesulfonamide hydrochloride], for which the Ki was no more than 10 nM.

Consider `CCN(CCOc1ccc2c(c1)C(Cc1ccccc1)C(N1CCCC1)CC2)S(=O)(=O)c1cnn(C)c1` (centres unmarked) [Example 124, N-(2-{[8-Benzyl-7-(pyrrolidin-1-yl)-5,6,7,8-tetrahydronaphthalen-2-yl]oxy}ethyl)-N-ethyl-1-methyl-1H-pyrazole-4-sulfonamide hydrochloride], for which the Ki is no more than 1000 nM.

Regarding `CC(C)NC1CCc2ccc(OCCNS(=O)(=O)c3cn(C)cn3)cc2C1Cc1cccc(C#N)c1` (centres unmarked) [Example 154, N-(2-{[8-(3-Cyanobenzyl)-7-(propan-2-ylamino)-5,6,7,8-tetrahydronaphthalen-2-yl]oxy}ethyl)-1-methyl-1H-imidazole-4-sulfonamide hydrochloride], the Ki is no more than 100 nM.

On to `O=S(=O)(CC1CC1)NCCOc1ccc2c(c1)C(Cc1cccc(F)c1)C(N1CCC1)CC2` (centres unmarked) [Example 139, N-(2-{[7-(Azetidin-1-yl)-8-(3-fluorobenzyl)-5,6,7,8-tetrahydronaphthalen-2-yl]oxy}ethyl)-1-cyclopropylmethanesulfonamide hydrochloride], for which the Ki is no more than 10 nM.

Turning to `O=S(=O)(NCCOc1ccc2c(c1)C(Cc1ccccc1)C(N1CCC1)CC2)C1CCC1` (centres unmarked) [Example 147, N-(2-{[7-(Azetidin-1-yl)-8-benzyl-5,6,7,8-tetrahydronaphthalen-2-yl]oxy}ethyl)cyclobutanesulfonamide], the Ki is no more than 100 nM.

With `CCCS(=O)(=O)NCCCc1ccc2c(c1)C(Cc1ccc(Cl)cc1)C(N)CC2` (centres unmarked) [Example 201, N-{3-[7-Amino-8-(4-chlorobenzyl)-5,6,7,8-tetrahydronaphthalen-2-yl]propyl}propane-1-sulfonamide hydrochloride], the Ki is no more than 100 nM.

As for `CCOCCS(=O)(=O)NCCOc1ccc2c(c1)C(Cc1ccc(Cl)c(Cl)c1)C(N)CC2` (centres unmarked) [Example 93, 2-Ethoxy-ethanesulfonic acid {2-[7-amino-8-(3,4-dichloro-benzyl)-5,6,7,8-tetrahydronaphthalen-2-yloxy]-ethyl}-amide hydrochloride], the Ki was no more than 1000 nM.

As to `NC1CCc2ccc(CCCNS(=O)(=O)CC3CC3)cc2C1Cc1cccc(F)c1` (centres unmarked) [Example 210, N-{3-[7-Amino-8-(3-fluorobenzyl)-5,6,7,8-tetrahydronaphthalen-2-yl]propyl}-1-cyclopropylmethanesulfonamide hydrochloride], the Ki is no more than 100 nM.

For the compound `NC1CCc2ccc(OCCNS(=O)(=O)CC3CC3)cc2C1Cc1ccc(F)c(F)c1` (centres unmarked) [Example 131, N-(2-{[7-Amino-8-(3,4-difluorobenzyl)-5,6,7,8-tetrahydronaphthalen-2-yl]oxy}ethyl)-1-cyclopropylmethanesulfonamide hydrochloride], the Ki was no more than 100 nM.

On to `Cn1ccc(S(=O)(=O)NCCOc2ccc3c(c2)C(Cc2cccc(F)c2)C(N2CCC2)CC3)c1` (centres unmarked) [Example 269, 1-Methyl-1H-pyrrole-3-sulfonic acid {2-[7-azetidin-1-yl-8-(3-fluoro-benzyl)-5,6,7,8-tetrahydro-naphthalen-2-yloxy]-ethyl}-amide], for which the Ki is no more than 10 nM.

For the compound `CCCS(=O)(=O)N(C)CCCc1ccc2c(c1)C(Cc1ccc(Cl)cc1)C(N)CC2` (centres unmarked) [Example 234, N-{3-[7-Amino-8-(4-chlorobenzyl)-5,6,7,8-tetrahydronaphthalen-2-yl]propyl}-N-methylpropane-1-sulfonamide hydrochloride], the Ki is no more than 100 nM.

`CN(CCOc1ccc2c(c1)C(Cc1ccccc1)C(N1CCC1)CC2)S(=O)(=O)c1cn(C)cn1` (centres unmarked) [Example 105, 1-Methyl-1H-imidazole-4-sulfonic acid [2-(7-azetidin-1-yl-8-benzyl-5,6,7,8-tetrahydronaphthalen-2-yloxy)-ethyl]-methyl-amide]: the Ki was no more than 100 nM.

Consider `NC1CCc2ccc(CNS(=O)(=O)CC3CC3)cc2C1Cc1ccc(F)c(F)c1` (centres unmarked) [Example 185, N-{[7-Amino-8-(3,4-difluorobenzyl)-5,6,7,8-tetrahydronaphthalen-2-yl]methyl}-1-cyclopropylmethanesulfonamide hydrochloride], for which the Ki was no more than 1000 nM.

In the case of `CCNC1CCc2ccc(CCCNS(=O)(=O)CC3CC3)cc2C1Cc1cccc(F)c1` (centres unmarked) [Example 221, C-Cyclopropyl-N-{3-[7-ethylamino-8-(3-fluoro-benzyl)-5,6,7,8-tetrahydro-naphthalen-2-yl]-propyl}-methanesulfonamide hydrochloride], the Ki is no more than 100 nM.

In the case of `O=S(=O)(NCc1ccc2c(c1)C(Cc1ccccc1)C(N1CCOCC1)CC2)C1CCC1` (centres unmarked) [Example 261, N-{[8-Benzyl-7-(morpholin-4-yl)-5,6,7,8-tetrahydronaphthalen-2-yl]methyl}cyclobutanesulfonamide], the Ki was no more than 1000 nM.

Take `O=S(=O)(CC1CC1)NCCOc1ccc2c(c1)C(Cc1ccc(Cl)c(Cl)c1)C(N1CCC(F)C1)CC2` (centres unmarked) [Example 134, 1-Cyclopropyl-N-[2-({8-(3,4-dichlorobenzyl)-7-[3-fluoropyrrolidin-1-yl]-5,6,7,8-tetrahydronaphthalen-2-yl}oxy)ethyl]methanesulfonamide]: the Ki is no more than 1000 nM.

As for `CCCS(=O)(=O)NCCCc1ccc2c(c1)C(Cc1cccc(Cl)c1)C(NC)CC2` (centres unmarked) [Example 308, Propane-1-sulfonic acid {3-[8-(3-chloro-benzyl)-7-methylamino-5,6,7,8-tetrahydronaphthalen-2-yl]-propyl}-amide hydrochloride], the Ki is no more than 10 nM.

For `CNC1CCc2ccc(OCCNS(=O)(=O)c3ccn(C)c3)cc2C1Cc1cc(F)cc(F)c1` (single isomer, unassigned; enantiomer 1) [Example 241, Enantiomer 1 of N-(2-{[8-(3,5-difluorobenzyl)-7-(methylamino)-5,6,7,8-tetrahydronaphthalen-2-yl]oxy}ethyl)-1-methyl-1H-pyrrole-3-sulfonamide hydrochloride], the Ki was no more than 100 nM.

Consider `CCCS(=O)(=O)NCCCc1ccc2c(c1)C(Cc1cccc(Cl)c1)C(N)CC2` (centres unmarked) [Example 297, Propane-1-sulfonic acid {3-[7-amino-8-(3-chloro-benzyl)-5,6,7,8-tetrahydro-naphthalen-2-yl]-propyl}-amide hydrochloride], for which the Ki is no more than 100 nM.

For `Cn1cnc(S(=O)(=O)NCCOc2ccc3c(c2)C(Cc2cc(F)cc(Cl)c2)C(N2CCC2)CC3)c1` (centres unmarked) [Example 160, N-(2-{[7-(Azetidin-1-yl)-8-(3-chloro-5-fluorobenzyl)-5,6,7,8-tetrahydronaphthalen-2-yl]oxy}ethyl)-1-methyl-1H-imidazole-4-sulfonamide(2E)-but-2-enedioate], the Ki was no more than 10 nM.

For the compound `Cn1cc(S(=O)(=O)NCc2ccc3c(c2)C(Cc2ccccc2)C(N2CCC2)CC3)cn1` (centres unmarked) [Example 250, N-{[7-(Azetidin-1-yl)-8-benzyl-5,6,7,8-tetrahydronaphthalen-2-yl]methyl}-1-methyl-1H-pyrazole-4-sulfonamide], the Ki is no more than 10 nM.

With `CN(CCOc1ccc2c(c1)C(Cc1ccccc1)C(N1CCCC1)CC2)S(=O)(=O)c1cnn(C)c1` (centres unmarked) [Example 111, 1-Methyl-1H-pyrazole-4-sulfonic acid [2-(8-benzyl-7-pyrrolidin-1-yl-5,6,7,8-tetrahydronaphthalen-2-yloxy)-ethyl]-methyl-amide hydrochloride], the Ki was no more than 100 nM.

For `CCCS(=O)(=O)NCCCc1ccc2c(c1)C(Cc1ccccc1)C(NC(C)C)CC2` (centres unmarked) [Example 273, N-{3-[8-Benzyl-7-(propan-2-ylamino)-5,6,7,8-tetrahydronaphthalen-2-yl]propyl}propane-1-sulfonamide hydrochloride], the Ki was no more than 1000 nM.

For the compound `CCCS(=O)(=O)NCCCc1ccc2c(c1)C(Cc1cccc(F)c1)C(NC(C)=O)CC2` (centres unmarked) [Example 214, N-[1-(3-Fluorobenzyl)-7-{3-[(propylsulfonyl)amino]propyl}-1,2,3,4-tetrahydronaphthalen-2-yl]acetamide], the Ki was no more than 10000 nM.

For the compound `C[Si](C)(C)CCS(=O)(=O)NCCOc1ccc2c(c1)C(Cc1ccc(Cl)c(Cl)c1)C(N)CC2` (centres unmarked) [Example 86, 2-Trimethylsilanyl-ethanesulfonic acid {2-[7-amino-8-(3,4-dichloro-benzyl)-5,6,7,8-tetrahydro-naphthalen-2-yloxy]-ethyl}-amide hydrochloride], the Ki is no more than 10000 nM.

`Cn1cnc(S(=O)(=O)NCCOc2ccc3c(c2)C(Cc2cccc(F)c2)C(N2CCCC2)CC3)c1` (centres unmarked) [Example 140, N-(2-{[8-(3-Fluorobenzyl)-7-(pyrrolidin-1-yl)-5,6,7,8-tetrahydronaphthalen-2-yl]oxy}ethyl)-1-methyl-1H-imidazole-4-sulfonamide hydrochloride]: the Ki is no more than 10 nM.

With `O=S(=O)(NCc1ccc2c(c1)C(Cc1ccccc1)C(N1CCC1)CC2)c1cccs1` (single isomer, unassigned; enantiomer 1) [Example 255, Enantiomer 1 of N-{[7-(azetidin-1-yl)-8-benzyl-5,6,7,8-tetrahydronaphthalen-2-yl]methyl}thiophene-2-sulfonamide], the Ki was no more than 1000 nM.

With `CNC1CCc2ccc(OCCNS(=O)(=O)c3cnn(C)c3)cc2C1Cc1ccccc1Cl` (centres unmarked) [Example 302, 1-Methyl-1H-pyrazole-4-sulfonic acid {2-[8-(2-chloro-benzyl)-7-methylamino-5,6,7,8-tetrahydro-naphthalen-2-yloxy]-ethyl}-amide hydrochloride], the Ki was no more than 100 nM.
